Reference: ChEMBL document CHEMBL1125402, “Conformational effects on the activity of drugs. 13. A revision of previously proposed models for the activation of alpha- and beta-adrenergic receptors” (J Med Chem, 1992)

Tests used:
[1] = target: T1, Adrenergic receptor alpha-2 (Rattus norvegicus, UniProt P22086+P19328+P22909); assay: Binding affinity towards alpha-2 adrenergic receptor of rat brain
T1 sequence (P22086 whole entry): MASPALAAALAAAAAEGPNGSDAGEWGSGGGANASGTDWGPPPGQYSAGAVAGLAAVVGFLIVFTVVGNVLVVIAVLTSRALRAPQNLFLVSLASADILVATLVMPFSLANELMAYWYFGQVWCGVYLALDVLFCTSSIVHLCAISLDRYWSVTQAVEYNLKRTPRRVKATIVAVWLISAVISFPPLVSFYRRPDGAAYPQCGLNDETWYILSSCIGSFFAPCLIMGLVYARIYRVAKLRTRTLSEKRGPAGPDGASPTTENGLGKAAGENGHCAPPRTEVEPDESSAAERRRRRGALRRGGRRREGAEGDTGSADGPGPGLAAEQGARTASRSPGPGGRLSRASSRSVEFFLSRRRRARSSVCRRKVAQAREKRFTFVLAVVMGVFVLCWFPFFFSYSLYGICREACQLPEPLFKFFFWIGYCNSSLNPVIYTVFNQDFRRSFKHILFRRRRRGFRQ
T1 sequence (P19328 whole entry): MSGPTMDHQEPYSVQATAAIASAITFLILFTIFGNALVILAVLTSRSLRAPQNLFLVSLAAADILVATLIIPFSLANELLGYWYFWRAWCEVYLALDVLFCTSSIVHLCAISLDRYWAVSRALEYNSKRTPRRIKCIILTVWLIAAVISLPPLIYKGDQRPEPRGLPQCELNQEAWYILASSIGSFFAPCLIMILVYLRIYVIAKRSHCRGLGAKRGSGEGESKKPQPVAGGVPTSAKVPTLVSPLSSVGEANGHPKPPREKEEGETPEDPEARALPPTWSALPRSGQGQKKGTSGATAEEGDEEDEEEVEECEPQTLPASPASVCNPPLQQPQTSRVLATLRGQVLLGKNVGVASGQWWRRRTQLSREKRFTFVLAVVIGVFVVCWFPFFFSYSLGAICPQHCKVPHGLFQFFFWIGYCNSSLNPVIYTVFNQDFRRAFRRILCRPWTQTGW
T1 sequence (P22909 whole entry): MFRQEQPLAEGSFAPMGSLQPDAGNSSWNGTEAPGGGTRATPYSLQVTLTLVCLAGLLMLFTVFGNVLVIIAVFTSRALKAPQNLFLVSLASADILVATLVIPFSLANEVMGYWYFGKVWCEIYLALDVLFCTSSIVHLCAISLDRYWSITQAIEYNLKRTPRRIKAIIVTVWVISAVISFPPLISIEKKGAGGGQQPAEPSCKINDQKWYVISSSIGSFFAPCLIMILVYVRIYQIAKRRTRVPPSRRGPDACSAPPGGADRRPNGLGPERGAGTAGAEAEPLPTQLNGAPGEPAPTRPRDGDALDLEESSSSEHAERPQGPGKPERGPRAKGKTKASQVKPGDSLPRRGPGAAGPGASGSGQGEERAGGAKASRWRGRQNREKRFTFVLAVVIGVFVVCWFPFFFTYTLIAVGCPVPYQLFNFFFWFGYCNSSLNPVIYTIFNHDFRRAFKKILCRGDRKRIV

[2] = target: Beta-2 adrenergic receptor (Bos taurus, UniProt Q28044); assay: Compound was evaluated for beta adrenergic binding affinity towards Beta-2 adrenergic receptor of bovine lung
Chain of Beta-2 adrenergic receptor (Q28044 whole entry): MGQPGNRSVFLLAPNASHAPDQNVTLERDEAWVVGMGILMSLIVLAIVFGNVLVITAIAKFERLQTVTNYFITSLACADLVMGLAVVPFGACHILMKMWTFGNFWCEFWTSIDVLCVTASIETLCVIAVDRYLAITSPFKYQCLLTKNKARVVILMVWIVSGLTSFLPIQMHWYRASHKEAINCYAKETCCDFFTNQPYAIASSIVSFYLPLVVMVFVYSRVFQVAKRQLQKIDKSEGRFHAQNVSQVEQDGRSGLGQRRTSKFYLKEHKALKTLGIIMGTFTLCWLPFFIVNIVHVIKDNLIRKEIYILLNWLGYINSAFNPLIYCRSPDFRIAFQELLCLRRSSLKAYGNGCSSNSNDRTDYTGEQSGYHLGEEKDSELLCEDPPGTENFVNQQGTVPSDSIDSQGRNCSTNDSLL

[3] = target: Beta-1 adrenergic receptor (Cavia porcellus) (UniProt B0FL73); assay: Compound was evaluated for beta adrenoceptor agonistic activity towards Beta-1 adrenergic receptor of isolated guinea pig atria (exp 1); type: functional
Chain of Beta-1 adrenergic receptor (Cavia porcellus) (B0FL73 1-467): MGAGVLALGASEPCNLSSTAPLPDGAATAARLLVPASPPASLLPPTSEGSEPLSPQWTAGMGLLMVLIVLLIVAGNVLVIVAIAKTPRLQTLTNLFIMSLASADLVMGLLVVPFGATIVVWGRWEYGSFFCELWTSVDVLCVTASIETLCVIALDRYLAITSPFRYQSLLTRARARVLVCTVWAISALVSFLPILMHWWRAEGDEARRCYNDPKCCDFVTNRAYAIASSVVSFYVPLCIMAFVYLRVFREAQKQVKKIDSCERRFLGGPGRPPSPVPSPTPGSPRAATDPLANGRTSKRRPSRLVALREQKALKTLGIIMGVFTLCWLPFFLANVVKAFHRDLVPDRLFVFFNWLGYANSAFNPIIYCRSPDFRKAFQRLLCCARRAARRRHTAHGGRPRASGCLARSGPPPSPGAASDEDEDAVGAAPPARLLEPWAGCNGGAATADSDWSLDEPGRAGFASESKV

[4] = target: Beta-1 adrenergic receptor (Cavia porcellus) (UniProt B0FL73)
Description: Compound was evaluated for beta adrenoceptor agonistic activity towards Beta-1 adrenergic receptor of isolated guinea pig atria (exp 2)

[5] = target: Beta-1 adrenergic receptor (Rattus norvegicus, UniProt P18090)
Chain of Beta-1 adrenergic receptor (P18090 whole entry): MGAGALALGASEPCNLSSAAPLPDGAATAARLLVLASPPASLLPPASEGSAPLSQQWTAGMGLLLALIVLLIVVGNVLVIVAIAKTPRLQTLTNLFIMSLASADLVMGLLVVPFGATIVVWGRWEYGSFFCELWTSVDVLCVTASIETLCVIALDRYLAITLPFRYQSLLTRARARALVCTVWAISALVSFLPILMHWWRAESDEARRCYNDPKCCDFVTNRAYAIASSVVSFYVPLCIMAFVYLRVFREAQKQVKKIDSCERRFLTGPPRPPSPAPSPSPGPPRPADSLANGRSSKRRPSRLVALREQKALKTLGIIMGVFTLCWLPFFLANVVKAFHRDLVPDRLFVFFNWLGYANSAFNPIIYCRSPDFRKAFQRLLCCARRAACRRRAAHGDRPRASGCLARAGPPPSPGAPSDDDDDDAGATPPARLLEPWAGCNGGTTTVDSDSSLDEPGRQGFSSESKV
Description: Compound was evaluated for beta adrenergic binding affinity towards Beta-1 adrenergic receptor of rat brain

[6] = target: Beta-2 adrenergic receptor (Cavia porcellus) (UniProt Q8K4Z4)
Chain of Beta-2 adrenergic receptor (Cavia porcellus) (Q8K4Z4 whole entry, looked up): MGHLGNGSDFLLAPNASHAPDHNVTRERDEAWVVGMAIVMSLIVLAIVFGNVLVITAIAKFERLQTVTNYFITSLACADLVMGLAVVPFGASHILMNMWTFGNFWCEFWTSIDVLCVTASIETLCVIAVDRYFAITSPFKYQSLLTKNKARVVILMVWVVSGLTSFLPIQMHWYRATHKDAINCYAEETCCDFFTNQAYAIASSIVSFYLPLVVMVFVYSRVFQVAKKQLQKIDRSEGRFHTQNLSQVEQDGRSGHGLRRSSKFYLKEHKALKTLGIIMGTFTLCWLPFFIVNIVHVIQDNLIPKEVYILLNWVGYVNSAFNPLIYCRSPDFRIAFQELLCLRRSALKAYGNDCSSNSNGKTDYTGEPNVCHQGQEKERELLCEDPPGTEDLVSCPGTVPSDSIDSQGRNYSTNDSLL
Description: Compound was evaluated for beta adrenoceptor agonistic activity towards Beta-2 adrenergic receptor of isolated guinea pig tracheal strip (exp 1)

[7] = target: T2, Adrenergic receptor alpha-2 (Homo sapiens) (UniProt P08913+P18825+P18089); assay: Intrinsic activity was expressed as the ratio between maximal response elicited by compound and that elicited by full agonist NE towards alpha-2 adrenergic receptor of isolated guinea pig ileum; type: functional, tissue-based; conditions: Cavia porcellus
[8] = target: Beta-2 adrenergic receptor (Cavia porcellus) (UniProt Q8K4Z4); remark: listed apart in the source
Description: Compound was evaluated for beta adrenoceptor agonistic activity towards Beta-2 adrenergic receptor of isolated guinea pig tracheal strip (exp 2)

[9] = target: T2, Adrenergic receptor alpha-2 (Homo sapiens); assay: Compound was evaluated for alpha adrenoceptor agonistic activity towards alpha-2 adrenergic receptor of isolated guinea pig ileum; type: functional, tissue-based; conditions: Cavia porcellus, target entry is the homologue from another species
[10] = target: T3, Adrenergic receptor alpha-1 (Rattus norvegicus, UniProt P15823+P23944+P43140); assay: Binding affinity towards Alpha-1 adrenergic receptor of rat brain
T3 sequence (P15823 whole entry): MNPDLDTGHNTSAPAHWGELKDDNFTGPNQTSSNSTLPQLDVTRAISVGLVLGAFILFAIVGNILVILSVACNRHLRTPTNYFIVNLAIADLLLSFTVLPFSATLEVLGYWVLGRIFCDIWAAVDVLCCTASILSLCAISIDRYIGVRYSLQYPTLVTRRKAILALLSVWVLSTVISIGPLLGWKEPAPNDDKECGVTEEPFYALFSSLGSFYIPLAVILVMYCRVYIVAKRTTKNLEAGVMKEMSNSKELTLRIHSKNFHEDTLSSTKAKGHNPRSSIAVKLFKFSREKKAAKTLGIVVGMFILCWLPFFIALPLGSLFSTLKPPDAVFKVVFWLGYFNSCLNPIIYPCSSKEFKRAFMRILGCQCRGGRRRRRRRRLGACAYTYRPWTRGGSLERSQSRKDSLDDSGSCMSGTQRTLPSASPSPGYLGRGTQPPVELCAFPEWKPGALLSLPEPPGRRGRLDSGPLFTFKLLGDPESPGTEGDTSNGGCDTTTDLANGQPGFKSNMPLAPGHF
T3 sequence (P23944 whole entry): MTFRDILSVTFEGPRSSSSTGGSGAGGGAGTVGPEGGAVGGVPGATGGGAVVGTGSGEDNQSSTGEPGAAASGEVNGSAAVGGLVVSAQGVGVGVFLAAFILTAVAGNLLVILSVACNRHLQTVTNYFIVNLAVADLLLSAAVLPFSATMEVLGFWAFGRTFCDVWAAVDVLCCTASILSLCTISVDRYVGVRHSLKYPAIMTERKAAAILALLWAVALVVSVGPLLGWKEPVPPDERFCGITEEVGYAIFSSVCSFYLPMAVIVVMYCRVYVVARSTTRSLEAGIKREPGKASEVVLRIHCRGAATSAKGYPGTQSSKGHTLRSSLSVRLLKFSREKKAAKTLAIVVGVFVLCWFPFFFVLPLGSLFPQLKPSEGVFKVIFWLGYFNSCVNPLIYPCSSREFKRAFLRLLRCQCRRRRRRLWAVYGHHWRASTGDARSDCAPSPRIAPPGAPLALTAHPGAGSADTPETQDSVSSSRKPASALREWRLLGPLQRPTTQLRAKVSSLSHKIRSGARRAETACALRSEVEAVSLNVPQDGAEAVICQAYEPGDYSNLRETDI
T3 sequence (P43140 whole entry): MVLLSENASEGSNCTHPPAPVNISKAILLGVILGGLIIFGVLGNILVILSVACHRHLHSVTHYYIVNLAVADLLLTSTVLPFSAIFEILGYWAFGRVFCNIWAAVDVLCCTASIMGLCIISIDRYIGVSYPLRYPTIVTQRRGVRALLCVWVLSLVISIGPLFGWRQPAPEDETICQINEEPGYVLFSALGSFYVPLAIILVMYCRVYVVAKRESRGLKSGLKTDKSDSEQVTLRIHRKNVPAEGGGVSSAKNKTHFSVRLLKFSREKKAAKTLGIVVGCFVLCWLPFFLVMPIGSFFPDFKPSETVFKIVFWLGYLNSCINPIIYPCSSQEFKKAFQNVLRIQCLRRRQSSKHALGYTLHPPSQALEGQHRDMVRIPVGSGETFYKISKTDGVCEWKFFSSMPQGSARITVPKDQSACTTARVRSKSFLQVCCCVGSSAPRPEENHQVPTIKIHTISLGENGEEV

[11] = Compound was evaluated for Alpha-1 adrenergic receptor agonistic activity towards alpha 1 receptor of isolated rabbit aortic strips; type: functional, Oryctolagus cuniculus
[12] = target: Beta-1 adrenergic receptor (Cavia porcellus) (UniProt B0FL73); assay: Intrinsic activity was expressed as the ratio between maximal response elicited by compound and that elicited by full agonist ISO towards beta 1 receptor of isolated guinea pig atria; type: functional

For `CC(C)N[C@@H]1CCc2c(ccc(O)c2O)[C@H]1O`, the Ki [1] was 5.8 µM, the Ki [2] was 0.062 µM and the pD2 [3] was 6.72. The pD2 [4] was 7.56, the Ki [5] was 0.76 µM and the pD2 [6] was 8.06. It also gave an Intrinsic activity [7] of 0.72, a pD2 [8] of 8.41 and a pD2 [9] of 5.6. The Ki [10] was greater than 100 µM, the pD2 [11] was less than 3.5 and the Intrinsic activity [12] was 1.
